A word on the Ki: it is the equilibrium dissociation constant of an inhibitor or competing ligand from its target. High values mean weaker binding, low ones tighter binding. The microsomal CLint is the capacity of the preparation to metabolise the compound, expressed as a volume cleared per time. A low value points to greater metabolic stability.

Molecules are shown by their SMILES. Bounds are passed on as bounds.

Consider 10 compounds from patent US9403796B2, “Amidomethyl-substituted oxindole derivatives and the use thereof for the treatment of vasopressin-dependent illnesses” (AbbVie Deutschland GmbH & Co. KG, priority 2007, dated 2016).

The target in data set [1] is T1, human vasopressin V1b receptor (Homo sapiens, UniProt P47901).
T1 construct: expressed in transfected cells; host or cells: CHO-K1 (cell line hV1b_3H2_CHO), membrane preparation
T1 sequence (P47901 1-424): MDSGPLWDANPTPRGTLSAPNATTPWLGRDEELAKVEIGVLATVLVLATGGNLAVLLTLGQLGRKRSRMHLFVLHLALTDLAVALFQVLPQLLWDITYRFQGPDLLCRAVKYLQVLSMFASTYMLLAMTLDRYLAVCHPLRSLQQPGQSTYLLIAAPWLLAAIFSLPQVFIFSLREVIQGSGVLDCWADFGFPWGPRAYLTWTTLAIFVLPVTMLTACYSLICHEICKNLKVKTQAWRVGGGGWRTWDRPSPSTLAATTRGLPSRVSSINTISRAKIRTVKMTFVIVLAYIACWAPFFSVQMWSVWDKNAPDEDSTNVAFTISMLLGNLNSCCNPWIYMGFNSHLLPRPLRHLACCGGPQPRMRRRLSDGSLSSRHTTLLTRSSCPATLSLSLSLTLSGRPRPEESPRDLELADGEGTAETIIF
Kind of data set: Vasopressin V1b receptor binding assay. As to conditions: CHO-K1 membranes, 3H-AVP displacement. Here is the method: The substance concentration was further diluted 1:5 in the assay mixture (2% DMSO in the mixture).
The nonspecific binding was determined with […] (Bachem #H1780). All determinations were carried out as triplicate determinations.

Data set [2] in a line: Determination of the microsomal half-life / microsomal clearance. Format: in vitro ADME. Particulars: pH 7.4; human liver microsomes, 0.5 μM test substance. Here is the method:
The metabolic stability of the compounds of the invention was determined in the following assay.
The test substances were incubated in a concentration of 0.5 μM as follows:
0.5 μM test substance are preincubated together with liver microsomes from different species (from rat, human or other species) (0.25 mg of microsomal protein/ml) in 0.05 M potassium phosphate buffer of pH 7.4 in microtiter plates at 37° C. for 5 min. The reaction is started by adding NADPH (1 mg/mL). After 0, 5, 10, 15, 20 and 30 min, 50 μl aliquots are removed, and the reaction is immediately stopped and cooled with the same volume of acetonitrile. The samples are frozen until analyzed. The remaining concentration of undegraded test substance is determined by MSMS. The half-life (T½) is determined from the gradient of the signal of test substance/unit time plot, it being possible to calculate the half-life of the test substance, assuming first order kinetics, from the decrease in the concentration of the compound with time. The microsomal clearance (mCl) is calculated from mCl=In2/T½/(content of microsomal protein in mg/ml)×1000 [ml/min/mg] (modified from references: Di, The Society for Biomolecular Screening, 2003, 453-462; Obach, DMD, 1999 vol. 27. N 11, 1350-1359).
Background: Liver microsomes are vesicles of endoplasmic reticulum, rich in cytochrome P450 enzymes.

In data set [3] the target is human vasopressin V1a receptor (Homo sapiens, UniProt P37288). Kind of data set: Vasopressin V1a receptor binding assay. Particulars: selectivity quotient, human V1a vs human V1b.
Chain of human vasopressin V1a receptor (P37288 whole entry): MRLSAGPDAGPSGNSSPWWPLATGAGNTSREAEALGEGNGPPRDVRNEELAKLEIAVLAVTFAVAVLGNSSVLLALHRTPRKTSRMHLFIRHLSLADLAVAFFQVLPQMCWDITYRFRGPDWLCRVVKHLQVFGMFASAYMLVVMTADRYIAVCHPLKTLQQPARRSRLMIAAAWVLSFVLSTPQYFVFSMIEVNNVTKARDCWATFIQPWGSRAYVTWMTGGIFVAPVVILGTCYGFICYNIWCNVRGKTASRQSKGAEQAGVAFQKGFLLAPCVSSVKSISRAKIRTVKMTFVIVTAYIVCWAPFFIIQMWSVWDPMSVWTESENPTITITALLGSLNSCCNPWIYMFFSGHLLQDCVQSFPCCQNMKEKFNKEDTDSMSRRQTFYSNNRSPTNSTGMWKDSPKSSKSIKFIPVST

Take `CCOc1ncccc1C1(CC(=O)N2CCN(C3CCN(C)CC3)CC2)C(=O)N(S(=O)(=O)c2ccccc2OC)c2ccc(C#N)cc21.O=C(O)C(F)(F)F` (racemic) [Example 8, (±)-3-(2-Ethoxypyridin-3-yl)-1-(2-methoxyphenylsulfonyl)-3-{2-[4-(1-methylpiperidin-4-yl)-piperazin-1-yl]-2-oxoethyl}-2-oxo-2,3-dihydro-1H-indole-5-carbonitrile, trifluoroacetic acid salt]: the Ki in data set [1] lay in the range of 3 to 30 nM. Further, the microsomal CLint at 0.5 μM in data set [2] is < 100 µL/min/mg. Besides, the “Ki(h-V1a)/Ki(h-V1b)” value in data set [3] is listed as “+++ (>30)”.
On to `CCOc1ncccc1C1(CC(=O)N2CCN(C3CCN(C)CC3)CC2)C(=O)N(S(=O)(=O)c2ccc(OC)cc2OC)c2ccc(C#N)cc21.O=C(O)C(F)(F)F` (racemic) [Example 9, (±)-1-(2,4-Dimethoxyphenylsulfonyl)-3-(2-ethoxypyridin-3-yl)-3-{2-[4-(1-methylpiperidin-4-yl)piperazin-1-yl]-2-oxoethyl}-2-oxo-2,3-dihydro-1H-indole-5-carbonitrile, trifluoroacetic acid salt], for which the Ki in data set [1] was < 3 nM. Moreover, in data set [2], the intrinsic clearance (microsomal CLint) at 0.5 μM was < 100 µL/min/mg. Besides, in data set [3], the “Ki(h-V1a)/Ki(h-V1b)” value is reported as “+++ (>30)”.
In the same order, the values of `CCOc1ncccc1C1(CC(=O)N2CCC(N3CCN(C)CC3)CC2)C(=O)N(S(=O)(=O)c2ccccc2OC)c2ccc(C#N)cc21.O=C(O)C(F)(F)F` (racemic) [Example 5, (±)-3-(2-Ethoxypyridin-3-yl)-1-(2-methoxyphenylsulfonyl)-3-{2-[4-(4-methylpiperazin-1-yl)-piperidin-1-yl]-2-oxoethyl}-2-oxo-2,3-dihydro-1H-indole-5-carbonitrile, trifluoroacetic acid] are 3 to 30 nM, 100 to 200 µL/min/mg and “++ (15-30)”.
In the same order, the values of `CCOc1ncccc1C1(CC(=O)N2CCC(N3CCN(C)CC3)CC2)C(=O)N(S(=O)(=O)c2ccc(OC)cc2OC)c2ccc(C#N)cc21.O=C(O)C(F)(F)F` (racemic) [Example 6, (±)-1-(2,4-Dimethoxyphenylsulfonyl)-3-(2-ethoxypyridin-3-yl)-3-{2-[4-(4-methylpiperazin-1-yl)piperidin-1-yl]-2-oxoethyl}-2-oxo-2,3-dihydro-1H-indole-5-carbonitrile, trifluoroacetic acid salt] are < 3 nM, < 100 µL/min/mg and “+++ (>30)”.
In the same order, the values of `CCOc1ncccc1C1(CC(=O)N2CCN(C3CCN(CC)CC3)CC2)C(=O)N(S(=O)(=O)c2ccc(OC)cc2OC)c2ccc(C#N)cc21` (single isomer, unassigned; (-)) [Example 10B, (−)1-(2,4-Dimethoxyphenylsulfonyl)-3-(2-ethoxypyridin-3-yl)-3-{2-[4-(1-ethylpiperidin-4-yl)-piperazin-1-yl]-2-oxoethyl}-2-oxo-2,3-dihydro-1H-indole-5-carbonitrile] are < 3 nM, < 100 µL/min/mg and “+++ (>30)”.
`CCOc1ncccc1C1(CC(=O)N2CCN(C3CCN(C)CC3)CC2)C(=O)N(S(=O)(=O)c2ccccc2)c2ccc(C#N)cc21.O=C(O)C(F)(F)F` (racemic) [Example 7, (±)-1-Phenylsulfonyl-3-(2-ethoxypyridin-3-yl)-3-{2-[4-(1-methylpiperidin-4-yl)piperazin-1-yl]-2-oxoethyl}-2-oxo-2,3-dihydro-1H-indole-5-carbonitrile, trifluoroacetic acid salt] had a Ki in data set [1] of 3 to 30 nM. For the same compound, the microsomal CLint at 0.5 μM in data set [2] was < 100 µL/min/mg. Further, in data set [3], the “Ki(h-V1a)/Ki(h-V1b)” value is “+++ (>30)”.
As for `CCOc1ncccc1C1(CC(=O)N2CCC(N3CCN(CC)CC3)CC2)C(=O)N(S(=O)(=O)c2ccc(OC)cc2OC)c2ccc(C#N)cc21.O=C(O)C(F)(F)F` (racemic) [Example 2, (±)-1-(2,4-Dimethoxyphenylsulfonyl)-3-(2-ethoxypyridin-3-yl)-3-{2-[4-(4-ethylpiperazin-1-yl)piperidin-1-yl]-2-oxoethyl}-2-oxo-2,3-dihydro-1H-indole-5-carbonitrile trifluoroacetic acid salt], the Ki in data set [1] was < 3 nM. Besides, in data set [2], the microsomal CLint at 0.5 μM was < 100 µL/min/mg. Besides, the “Ki(h-V1a)/Ki(h-V1b)” value in data set [3] was “+++ (>30)”.
In the same order, the values of `CCOc1ncccc1C1(CC(=O)N2CCC(N3CCN(CC)CC3)CC2)C(=O)N(S(=O)(=O)c2ccccc2OC)c2ccc(C#N)cc21.O=C(O)C(F)(F)F` (racemic) [Example 4, (±)-3-(2-Ethoxypyridin-3-yl)-3-{2-[4-(4-ethylpiperazin-1-yl)piperidin-1-yl]-2-oxoethyl}-1-(2-methoxyphenylsulfonyl)-2-oxo-2,3-dihydro-1H-indole-5-carbonitrile, trifluoroacetic acid salt] are 3 to 30 nM, 100 to 200 µL/min/mg and “+++ (>30)”.
In the same order, the values of `CCOc1ncccc1C1(CC(=O)N2CCC(N3CCN(CC)CC3)CC2)C(=O)N(S(=O)(=O)c2ccccc2)c2ccc(C#N)cc21.O=C(O)C(F)(F)F` (racemic) [Example 3, (±)-1-Phenylsulfonyl-3-(2-ethoxypyridin-3-yl)-3-{2-[4-(4-ethylpiperazin-1-yl)piperidin-1-yl]-2-oxoethyl}-2-oxo-2,3-dihydro-1H-indole-5-carbonitrile, trifluoroacetic acid salt] are 3 to 30 nM, < 100 µL/min/mg and “+++ (>30)”.
`CCOc1ncccc1C1(CC(=O)N2CCC(N3CCN(C)CC3)CC2)C(=O)N(S(=O)(=O)c2ccccc2)c2ccc(C#N)cc21.O=C(O)C(F)(F)F` (racemic) [Example 1, (±)-1-Phenylsulfonyl-3-(2-ethoxypyridin-3-yl)-3-{2-[4-(4-methylpiperazin-1-yl)piperidin-1-yl]-2-oxoethyl}-2-oxo-2,3-dihydro-1H-indole-5-carbonitrile, trifluoroacetic acid salt] had a Ki in data set [1] of 3 to 30 nM. The microsomal CLint at 0.5 μM in data set [2] is < 100 µL/min/mg. Further, the “Ki(h-V1a)/Ki(h-V1b)” value in data set [3] is listed as “++ (15-30)”.
